Source: US6383773B2, “Penicillin conversion” (Massachusetts Institute of Technology, priority 1998, dated 2002)

What was measured:
[1] = test system: immobilized S. clavuligerus NP1 cells; assay: Conversion of penicillin G by immobilized cells (Example 5); format: cell-based
Protocol: Culture Conditions: A seed culture of S. clavuligerus mutant NP-1 was made by thawing a frozen preparation of spores and inoculating 40μl into 40 ml MST medium containing 90 mM MOPS buffer, pH 7.0, 1% starch and 3% trypticase soy broth medium without dextrose (BBL Becton Dickinson Microbiology Systems, Cockeysville, Md.) in 250 ml baffled flasks. The flasks were incubated for 2 days at 30° C. and 250 rpm. One ml of the seed culture was used as inoculum for the main culture which contained 80 ml of MST medium in 500 ml unbaffled flasks. The flasks were incubated for 24 h at 30° C. and 250 rpm.
Preparation of Resting Cells: Cells were harvested by centrifugation at 14,000×g for 15 min at 4° C. and washed twice with cold deionized water. Washed cells were resuspended in 10 ml of water giving a concentration (wet weight) of about 0.31 g/ml.
Preparation of Polyethyleneimine (PEI)-Barium Alginate Entrapped Cells: Resting cells from a one-day old culture of S. clavuligerus NP-1 (2 g wet weight) were directly resuspended in 20 ml of 1.5% (w/v) sodium alginate solution. The resulting sodium alginate-cell suspension was placed into a 10 ml plastic syringe containing a 26.6 G needle. The suspension was added drop by drop into a slowly stirring hardening solution of 2% (w/v) barium chloride containing 1% (w/v) PEI, giving beads of about 1.5-2.0 mm in diameter. […]

[2] = biological target: T1, S. clavuligerus expandase (Streptomyces clavuligerus, UniProt P18548); conditions: literature reports (Jensen 1982; Dotzlaf 1989; Yeh 1994; Maeda 1995); cited from earlier work
T1 construct: The cells were resuspended in the same buffer and disrupted by four 25-sec. sonication treatments; endogenous in cells; host or cells: S. clavuligerus mutant NP1, crude cell-free extract

[3] = test system: resting S. clavuligerus NP1 cells; assay: Penicillin G ring expansion by resting cells grown on alcohol (Example 3); format: cell-based; conditions: 3 hours of reaction, 5.6 mM penicillin G; for Cephalosporin Production Specific: per mg DCW
Protocol: Microorganisms, Media, and Culture Conditions: All experiments were done using S. clavuligerus NP1. Seed cultures were developed using 250 ml baffled flasks containing 40 ml of MST medium: 1% soluble starch (Sigma Chemical Co., St. Louis, Mo.); 3% Trypticase Soy Broth Without Dextrose (BBL, Cockeysville, Md.); 90 mM MOPS buffer, pH adjusted to 7.0 before autoclaving. Each flask was inoculated with 50 μl of a spore suspension (stored in 20% glycerol at −80° C.) and incubated at 30° C., 250 rpm for 48 h.
From a seed culture, 4 ml were transferred to 500 ml baffled flasks containing 80 ml of MT medium (3% Trypticase Soy Broth Without Dextrose; 90 mM MOPS buffer, pH adjusted to 7.0 before autoclaving) with or without 1-2% ethanol or methanol. Alcohols were added just before inoculation. Cells were grown at 30° C., 250 rpm for 24 h. Mycelia from each flask were washed twice and, finally, resuspended in 10 ml of distilled water. Four ml of this cell suspension were used in the ring-expanding biotransformation.
Ring Expansion: The ring expansion mixture contained 1.8 mM FeSO4, 1.28 mM α-ketoglutarate, 4 ml cell suspension, 5.6 mM penicillin G and 50 mM MOPS (pH 6.5) in a final volume of 10 ml contained in 250 ml baffled Erlenmeyer flasks. Additions were made in the order established by Shen et al. (Shen et al., Enzyme Microb. Technol. 17:231-234, 1984). Incubation was at 220 rpm and 30° C. for 1 to 3 h. Samples were collected and centrifuged. Biotransformation activity was detected by paper disc-agar diffusion bioassay.
Detection of Expandase Activity: Expandase activity was detected by paper disc-agar diffusion bioassay. Two superimposed paper discs (¼ inch; Schleicher & Schuell, Keene, N.H.) were saturated with 100 μl of each supernatant or standard. After each application, the discs were allowed to dry for 30 min in a laminar hood and then placed on Petri plates containing 10 ml of LB (1% tryptone, 0.5% NaCl, 0.5% yeast extract, 0.1% glucose) 0.8% agar medium containing 50,000 IU/ml of penicillinase (Difco Bacto penase concentrate, Difco Laboratories, Detroit, Mich.) seeded with E. coli ESS (a β-lactam-supersensitive mutant). The plates were incubated overnight at 37° C. The penicillinase used is a narrow spectrum β-lactamase that destroys the substrate penicillin G but not cephalosporins. The diameters of zones of growth inhibition were measured and quantified with calibration curves using pure DAOG as standard.
Dry Cell Weight (DCW) Assay: Two samples of 1 ml were taken from each cell suspension prepared in distilled water (10 ml), centrifuged (14,000×g, 10 min) and dried to constant weight at 65° C. The weights listed are those in the reaction mixture.

[4] = cells grown in MT + 1% E (ethanol)
[5] = cells grown in MT + 1% M (methanol)
[6] = cells grown in MT + 2% E (ethanol)
[7] = cells grown in MT + 2% M (methanol)

T1 sequence (P18548 whole entry): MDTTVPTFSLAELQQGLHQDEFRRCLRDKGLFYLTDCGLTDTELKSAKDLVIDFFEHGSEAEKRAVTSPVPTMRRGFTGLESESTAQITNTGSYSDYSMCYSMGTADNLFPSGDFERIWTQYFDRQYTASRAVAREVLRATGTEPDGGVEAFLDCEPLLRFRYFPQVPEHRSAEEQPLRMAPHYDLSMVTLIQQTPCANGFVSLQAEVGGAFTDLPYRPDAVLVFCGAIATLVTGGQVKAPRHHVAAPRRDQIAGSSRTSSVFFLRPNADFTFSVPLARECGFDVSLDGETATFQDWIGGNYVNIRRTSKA

## CC1(C)S[C@@H]2[C@H](NC(=O)Cc3ccccc3)C(=O)N2[C@H]1C(=O)O [Penicillin G, penicillin G]
[1]; cells immobilized in agarose (4% w/v) and k-carrageenan (3% w/v)
  cephalosporin production: did not observe cephalosporin production
[1]; resting cells entrapped in PEI-barium alginate (1.5%)
  ring expansion: able to expand penicillin G
[2]
  ring expansion: not
[3]; [4]
  Cephalosporin Production Volumetric: 12.3 µg/mL
  Cephalosporin Production Specific: 3.6 µg/mg
[3]; [5]
  Cephalosporin Production Volumetric: 5.2 µg/mL
  Cephalosporin Production Specific: 1.7 µg/mg
[3]; [6]
  Cephalosporin Production Volumetric: 6.3 µg/mL
  Cephalosporin Production Specific: 7.0 µg/mg
[3]; [7]
  Cephalosporin Production Volumetric: 4.3 µg/mL
  Cephalosporin Production Specific: 1.5 µg/mg
[3]; cells grown in MT
  Cephalosporin Production Volumetric: 5.3 µg/mL
  Cephalosporin Production Specific: 1.5 µg/mg
